In patent US20080153791A1, “11Beta -Hydroxysteroid Dehydrogenases” (onpharm GmbH, priority 2005, published 2008):
Where two headings read alike, the source gives them in different places.

Tests used:
human 11β-HSD2 = target: T1, human 11β-HSD2 (Homo sapiens, UniProt P80365); assay: 11β-HSD2 oxidase activity (cortisol to cortisone) in lysates of stably transfected HEK-293 cells; assay type: biochemical; conditions: for remaining activity at 20 µM: read-out: 11β-HSD2 % of control
T1 construct: expressed in transfected cells
T1 sequence (P80365 1-405): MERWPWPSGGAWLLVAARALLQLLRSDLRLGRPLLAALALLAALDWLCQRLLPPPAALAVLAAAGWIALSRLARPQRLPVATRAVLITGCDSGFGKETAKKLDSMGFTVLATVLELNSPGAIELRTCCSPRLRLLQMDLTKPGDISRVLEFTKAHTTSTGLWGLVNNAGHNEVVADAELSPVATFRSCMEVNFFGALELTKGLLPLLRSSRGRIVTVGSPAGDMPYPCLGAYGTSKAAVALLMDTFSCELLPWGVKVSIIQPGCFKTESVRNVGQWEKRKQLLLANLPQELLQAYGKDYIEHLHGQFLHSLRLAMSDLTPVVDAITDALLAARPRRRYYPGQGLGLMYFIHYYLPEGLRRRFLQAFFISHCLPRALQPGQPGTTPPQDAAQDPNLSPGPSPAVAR
Description: (§1) Cells were grown in 10 cm dishes to 80% confluence and incubated for 16 h in steroid-free medium (charcoal-treated fetal calf serum (FCS) from HyClone, Logan, Utah). Cells were rinsed once with phosphate-buffered saline (PBS), detached and centrifuged for 3 min at 150×g. The supernatant was removed and the cell pellet quick-frozen in a dry-ice ethanol bath. At the day of experiment, cell pellets were resuspended in buffer TS2 (100 mM NaCl, 1 mM EGTA, 1 mM EDTA, 1 mM MgCl2, 250 mM sucrose, 20 mM Tris-HCl, pH 7.4), sonicated and activities determined immediately. The rate of conversion of cortisol to cortisone or the reverse reaction was determined in 96-well optical PCR reaction plates (Applied Biosystems, Foster City, Calif.) in a final volume of 22 μl, and the tubes were capped during the reaction to avoid evaporation.
Reactions were initiated by simultaneously adding 10 μl of cell lysate and 12 μl of TS2 buffer containing the appropriate concentration of the inhibitory compound to be tested, NAD^+, 30 nCi of [1,2,6,7-^3H]-cortisol and unlabeled cortisol. […] Stock solutions of the inhibitors in methanol or DMSO were diluted in TS2 buffer to yield the appropriate concentrations, whereby the concentration of methanol or DMSO in the reactions were kept below 0.1%. Control reactions with or without 0.1% of the solvent were performed. Incubation was at 37° C. for 10 min with shaking, reactions were terminated by adding 10 μl of stop solution containing 2 mM of unlabeled cortisol and cortisone dissolved in methanol. The conversion of radiolabeled cortisol was determined by separation of cortisol and cortisone using TLC and a solvent system of 9:1 (v/v) chloroform:methanol, followed by scintillation counting.
(§2) Enzyme kinetics were analyzed by non-linear regression using Data Analysis Toolbox (MDL Information Systems Inc.) assuming first-order rate kinetics. Data represent mean ±SD of four to five independent experiments.
(§3) Assay with 20 μM of the corresponding compound in the reaction mixture, added simultaneously with the substrate:
(§4) Determination of IC50 values, using 7 different inhibitor concentrations at factor 2 intervals: […]

human 11β-HSD1 = target: T2, human 11β-HSD1 (Homo sapiens, UniProt P28845); assay: 11β-HSD1 reductase activity (cortisone to cortisol) in lysates of stably transfected HEK-293 cells; assay type: biochemical; conditions: for remaining activity at 20 µM: 20 μM compound, 100 nM cortisone, HEK-293 cell lysates, read-out: 11β-HSD1 % of control; for IC50: cell lysates
T2 construct: expressed in transfected cells
Description: as §1
Reactions were initiated simultaneously by adding 10 μl of cell lysate and 12 μl of TS2 buffer containing the appropriate concentration of the inhibitory compound to be tested, NADPH, 30 nCi of [1,2,6,7-^3H]-cortisone and unlabeled cortisone, whereby final concentrations were 400 μM NADPH and 100 nM cortisone. Activities were determined immediately after cell disruption by measuring the conversion of radiolabeled cortisone to cortisol for 10 min.
as §2, §3, §4

[1] = 20 μM compound, 25 nM cortisol, HEK-293 cell lysates
[2] = cell lysates, 7 inhibitor concentrations at factor 2 intervals, experiment 2, read-out: IC 50 11β-HSD2, determination 2
[3] = cell lysates, 7 inhibitor concentrations at factor 2 intervals, experiment 3, read-out: IC 50 11β-HSD2, determination 3

T2 sequence (P28845 whole entry): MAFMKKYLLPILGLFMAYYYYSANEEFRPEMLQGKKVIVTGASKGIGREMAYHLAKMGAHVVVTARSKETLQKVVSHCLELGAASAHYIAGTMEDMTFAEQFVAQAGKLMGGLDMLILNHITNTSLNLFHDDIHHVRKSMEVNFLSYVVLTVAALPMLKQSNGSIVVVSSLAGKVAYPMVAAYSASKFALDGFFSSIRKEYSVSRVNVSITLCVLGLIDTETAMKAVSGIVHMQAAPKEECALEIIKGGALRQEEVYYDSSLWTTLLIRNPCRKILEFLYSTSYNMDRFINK

Row | SMILES | remaining activity at 20 µM (human 11β-HSD2; [1]) | remaining activity at 20 µM (human 11β-HSD1) | further results
1 | COc1ccc(C(=O)NCc2cccc(Cl)c2Cl)c(C(F)(F)F)c1 [BNW6] | 145% | 79.6% | –
2 | Cc1cccc(C)c1C1C(SCC(=O)Nc2c(Cl)cccc2Cl)=NN=C1c1cccc([S+]([O-])N(C)C)c1 (stereo not drawn) [BNW11] | 121% | 70.1% | –
3 | CCN(CC)S(=O)(=O)c1ccc(OC)c(-c2nnc(-c3cc(S(=O)(=O)N(CC)CC)ccc3OC)o2)c1 [BNW29] | 115% | 75.3% | –
4 | NC(=O)c1c(NC(=O)C2CC=CCC2C(=O)O)sc2c1CCCCC2 (stereo not drawn) [BNW8] | 103% | 41.7% | –
5 | CCOc1ccc(C2c3cc(OCC)c(OCC)cc3CC(=O)N2c2ccc(C(=O)O)cc2)cc1OCC (stereo not drawn) [BNW17] | 120% | 88.2% | –
6 | CCN(CC(O)COc1cc(C)c(Cl)c(C)c1)S(=O)(=O)O (stereo not drawn) [BNW1] | 96.8% | 102% | –
7 | COc1cc2c(cc1OC)C(COc1ccc([N+](=O)[O-])cc1)N(C(=O)c1ccc(Cl)c([N+](=O)[O-])c1)CC2 (stereo not drawn) [BNW27] | 126% | 78.6% | –
8 | CCN(CC)S(=O)(=O)c1ccc(Cl)c(C(=O)Nc2nc3ccc(S(C)(=O)=O)cc3s2)c1 [BNW12] | 132% | 85.4% | –
9 | CCC(Sc1nnc(-c2ccc(OC)c(OC)c2)c(-c2ccc(OC)c(OC)c2)n1)C(=O)N(CC)CC (stereo not drawn) [BNW30] | 140% | 48.4% | –
10 | CC1(C)[C@@H](N)CC[C@]2(C)[C@H]3C(=O)C=C4[C@@H]5C[C@@](C)(C(=O)O)CC[C@]5(C)CC[C@@]4(C)[C@]3(C)CC[C@@H]12 [BNW25, (2S,4aS,6aS,6bR,8aR,10S,12aS,12bR,14bR)-10-Amino-2,4a,6a,6b,9,9,12a-heptamethyl-13-oxo-1,2,3,4,4a,5,6,6a,6b,7,8,8a,9,10,11,12,12a,12b,13,14b-icosahydro-picene−2-carboxyiic acid] | – | 2.9% | IC50 (human 11β-HSD2; [2]): 54.6 nM; IC50 (human 11β-HSD2; [3]): 64.9 nM; remaining activity at 20 µM (human 11β-HSD2): 13.9%; IC50 (human 11β-HSD2; read-out: IC 50 11β-HSD2, Mean): 59.7 nM; IC50 (human 11β-HSD1; mean of determinations 1-3, read-out: IC 50 11β-HSD1, Mean): 172 nM
11 | CSc1nc2cc(C)c(C)cc2n1C1OC(CO)C(O)C1O (stereo not drawn) [BNW18] | 82.8% | 92% | –
12 | Cc1nn(CC(=O)Nc2sc(C)c(C)c2C(N)=O)c(C)c1[N+](=O)[O-] [BNW4] | 95% | 82.2% | –
13 | CCOc1ccc(C2C(C(=O)c3ccc(Cl)cc3)=C(O)C(=O)N2CCCn2ccnc2)cc1OCC (stereo not drawn) [BNW22] | 104% | 41.3% | –
14 | Cc1n[nH]c(O)c1C(c1ccc(-c2ccc(Cl)c(C(=O)O)c2)o1)c1c(O)n[nH]c1C [BNW5] | 97.5% | 69.8% | –

Continued, in another order:

Row | remaining activity at 20 µM (human 11β-HSD2; [1]) | remaining activity at 20 µM (human 11β-HSD1) | SMILES | further results
15 | 53.6% | 60.3% | CCCCOc1ccc(C(=O)C2=C(O)C(=O)N(CCOC)C2c2cccnc2)c(C)c1 (stereo not drawn) [BNW3] | –
16 | 137% | 94.1% | COc1ccc(CNC(=O)C2CCC(=O)N2C2CCCC2)cc1OC (stereo not drawn) [BNW26] | –
17 | 78% | 78.8% | COc1ccc(OC)c(C2C(C(=O)c3ccc(Br)cc3)=C(O)C(=O)N2CCCn2ccnc2)c1 (stereo not drawn) [BNW2] | –
18 | 56.9% | 50.4% | CC1(C)[C@@H](OCO)CC[C@]2(C)[C@H]3C(=O)C=C4C5=C[C@@](C)(C(=O)O)CC[C@]5(C)CC[C@@]4(C)[C@]3(C)CC[C@@H]12 [BNW15] | –
19 | 121% | 46.8% | COCCN1C(=O)C(O)=C(C(=O)c2ccc(OC)c(C)c2)C1c1ccc(C)cc1 (stereo not drawn) [BNW20] | –
20 | 14.4% | 3.9% | COC(=O)[C@@]1(C)CC[C@]2(C)CC[C@]3(C)C(=CC(=O)[C@@H]4[C@@]5(C)CC[C@H](Oc6ccccc6C(=O)O)C(C)(C)[C@@H]5CC[C@]43C)[C@@H]2C1 [BNW13, (2S,4aS,6aS,6bR,8aR,10S,12aS,12bR,14bR)-10-(2-Carboxy-phenoxy)-2,4a,6a,6b,9,9,12a-heptamethyl-13-oxo-1,2,3,4,4a,5,6,6a,6b,7,8,8a,9,10,11,12,12a,12b,13,14b-icosahydro-picene-2-carboxylic acid methyl ester] | IC50 (human 11β-HSD2; [2]): 263 nM; IC50 (human 11β-HSD2; [3]): 299 nM; IC50 (human 11β-HSD1; 7 inhibitor concentrations at factor 2 intervals, experiment 1, read-out: IC 50 11β-HSD1, determination 1): 666 nM; IC50 (human 11β-HSD1; 7 inhibitor concentrations at factor 2 intervals, experiment 2, read-out: IC 50 11β-HSD1, determination 2): 756 nM; IC50 (human 11β-HSD1; 7 inhibitor concentrations at factor 2 intervals, experiment 3, read-out: IC 50 11β-HSD1, determination 3): 652 nM
21 | 133% | 85.1% | COc1cccc(/C=N/NC(=O)CSCc2ccccc2C)c1OC [BNW23] | –
22 | 137% | 76.7% | COc1cc(/C=N/NC(=O)CSc2nc3ccccc3n2Cc2ccc(C)cc2)cc(OC)c1OC(C)=O [BNW28] | –
23 | 122% | 48.9% | COc1ccc(C(=O)C2=C(O)C(=O)N(CCCn3ccnc3)C2c2ccccc2)cc1Cl (stereo not drawn) [BNW21] | –
24 | 77.4% | 30.7% | COCCC1C(=O)C(O)=C(C(=O)c2ccc(OC)c(C)c2)C1c1ccc(Cl)cc1Cl (stereo not drawn) [BNW9] | –
